Bounds are passed on as bounds.

Data set [1] is described as follows: AUC in cynomolgus monkey with probenecid at 2.5 mg/kg. It is filed as ADME, organism-based, Macaca fascicularis. The arrangement: dose 2.5 mg/kg. The following applies: plasma.
Data set [2] can be described thus: AUC (0 to 24 hrs) in hollow-fiber infection model at >50 uM as continuous infusion. It is filed as ADME. The arrangement: dose 50 uM, time < 24 hr.
A short description of data set [3]: AUC in cynomolgus monkey with probenecid at 5 mg/kg single dose regimen for 13 days. The following applies: plasma. Format: ADME, organism-based, Macaca fascicularis. The arrangement: dose 5 mg/kg.
Data set [4] in a line: AUC in cynomolgus monkey with probenecid at 5 mg/kg five dose regimen for 13 days. It is filed as ADME, organism-based, Macaca fascicularis. The arrangement: dose 5 mg/kg. The following applies: plasma.
The next data set relates to Variola major virus. In words: Antiviral activity against Variola major virus. It is filed as functional.
In data set [5] the test system is Vaccinia virus. In words: Antiviral activity against Vaccinia virus WR infected in cynomolgus monkey with probenecid assessed as decrease in plasma viral titer at 6 dose regimen of 2.5 mg/kg for 13 days. It is filed as functional, Orthopoxvirus vaccinia. The arrangement: scale not given: the % may be the effect or the level left.
Data set [6] in a line: Antiviral activity against Vaccinia virus IHD-J ATCC VR-156 infected in HeLaS3 cells after 3 to 5 days by plaque assay. Format: functional, cell-based. The settings on record: ATCC VR-156, HeLa S3.
Data set [7] can be described thus: AUC (0 to infinity) in human at 5 mg/kg administered as single dose. It is filed as ADME, organism-based. The arrangement: time infinity, dose 5 mg/kg. The settings on record: plasma.
Data set [8] can be described thus: AUC (0 to 24 hrs) in hollow-fiber infection model at 3 uM as continuous infusion. It is filed as ADME. The arrangement: time < 24 hr, dose 3 uM.
A short description of data set [9]: AUC in cynomolgus monkey with probenecid at 5 mg/kg six dose regimen for 13 days. The settings on record: plasma. The arrangement: dose 5 mg/kg. It is filed as ADME, organism-based, Macaca fascicularis.
For data set [10], the system named is Vaccinia virus. In words: Antiviral activity against Vaccinia virus WR infected in cynomolgus monkey with probenecid assessed as decrease in plasma viral titer at 5 dose regimen of 2.5 mg/kg for 13 days. It is filed as functional. The following applies: Orthopoxvirus vaccinia, in Macaca fascicularis, 312 h.
For data set [11], the system named is Vaccinia virus. Kind of data set: Antiviral activity against Vaccinia virus IHD-W ATCC VR-1441 infected in HeLaS3 cells after 3 to 5 days by plaque assay. Format: functional, organism-based. The settings on record: Orthopoxvirus vaccinia, IHD-W ATCC VR-1441, HeLa S3.

As usually defined, the AUC is the area under the concentration-time curve, a measure of exposure. As a reminder, the AUC(0-t) is the area under the concentration-time curve up to a stated or last time point. What is called EC50 is the concentration giving half of the maximal effect. Broadly, the AUC(0-inf) is the area under the concentration-time curve extrapolated to infinity. By Emax is commonly meant the greatest response seen or fitted, relative to the assay's reference. In data set [1], `Nc1ccn(C[C@@H](CO)OCP(=O)(O)O)c(=O)n1.O.O` [CIDOFOVIR] registered an exposure (AUC) of 14400 ng·h/mL. In [2], this compound came in with an area under the curve AUC(0-t) at 24 h, 50 µM of more than 1200 µM·h. For the same compound, the AUC at 312 h came to 103 µM·h in data set [3], 514 µM·h in data set [4] and 617 µM·h in data set [9]. The Activity was 6 µM in the data set with Variola major virus and less than 10% with Vaccinia virus [5]. Besides, the results for the EC50 (in data set [6]; in the data set on Vaccinia virus [11]) were 18.7 µM and 20.6 µM, respectively. Also, the AUC(0-inf) in data set [7] was 75 µM·h. Moreover, in data set [8], the AUC(0-t) at 24 h, 3 µM stood at 72 µM·h. Further, the Emax at 2.5 mg/kg in the data set with Vaccinia virus [10] was 30%.

Source of the values: ChEMBL document CHEMBL1629567, “Pharmacodynamics of cidofovir for vaccinia virus infection in an in vitro hollow-fiber infection model system” (Antimicrob Agents Chemother, 2009).
